Assay results published in patent publication US7998965B2, “Glutamate aggrecanase inhibitors” (Wyeth LLC, priority 2005, dated 2011).
pIC50: −log10 of the molar value.

Legend:
[1] = molecular target: T1, purified recombinant human Aggrecanase-1 (rAgg1) (Homo sapiens, UniProt O75173); experiment: In vitro fluorescence screen for Aggrecanase-1 inhibitors; assay type: biochemical; conditions: Table 2; read-out: Agg1 IC50
T1 sequence (O75173 213-837): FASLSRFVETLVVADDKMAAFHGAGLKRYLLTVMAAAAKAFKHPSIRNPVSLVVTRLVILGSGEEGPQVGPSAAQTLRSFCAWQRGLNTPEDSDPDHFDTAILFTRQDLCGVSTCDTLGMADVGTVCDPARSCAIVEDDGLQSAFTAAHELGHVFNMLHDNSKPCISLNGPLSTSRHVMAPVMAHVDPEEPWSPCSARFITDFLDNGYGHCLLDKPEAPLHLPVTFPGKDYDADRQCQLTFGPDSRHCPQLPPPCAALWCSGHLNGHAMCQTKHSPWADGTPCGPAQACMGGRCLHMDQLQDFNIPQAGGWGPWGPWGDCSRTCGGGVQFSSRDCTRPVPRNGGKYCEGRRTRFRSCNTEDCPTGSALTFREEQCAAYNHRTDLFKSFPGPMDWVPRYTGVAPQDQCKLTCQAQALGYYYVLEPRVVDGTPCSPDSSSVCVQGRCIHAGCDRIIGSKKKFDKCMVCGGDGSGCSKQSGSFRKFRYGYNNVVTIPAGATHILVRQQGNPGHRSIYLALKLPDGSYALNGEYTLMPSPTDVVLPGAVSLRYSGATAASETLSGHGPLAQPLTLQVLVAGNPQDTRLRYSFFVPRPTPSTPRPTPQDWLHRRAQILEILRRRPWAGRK

[2] = molecular target: T2, purified recombinant human Aggrecanase-2 (Ag2t-Phe628-Strep) (Homo sapiens, UniProt Q9UNA0); experiment: In vitro fluorescence screen for Aggrecanase-2 inhibitors; assay type: biochemical; conditions: Table 2; read-out: Agg 2 IC50
T2 construct: the form used is denoted as Ag2t-Phe628-Strep (MW=41,737)
T2 sequence (Q9UNA0 262-628): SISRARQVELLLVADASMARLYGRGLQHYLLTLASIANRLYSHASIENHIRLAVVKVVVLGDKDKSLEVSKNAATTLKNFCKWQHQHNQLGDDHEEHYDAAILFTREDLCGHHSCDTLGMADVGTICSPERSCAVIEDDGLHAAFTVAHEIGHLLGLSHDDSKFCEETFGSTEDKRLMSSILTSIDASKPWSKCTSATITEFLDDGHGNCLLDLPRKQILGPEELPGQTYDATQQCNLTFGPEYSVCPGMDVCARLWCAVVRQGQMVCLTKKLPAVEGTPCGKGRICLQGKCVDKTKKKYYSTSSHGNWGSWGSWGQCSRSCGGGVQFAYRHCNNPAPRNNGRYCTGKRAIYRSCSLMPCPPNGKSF

pIC50 [1]	pIC50 [2]	Structure (SMILES)
> 7.52	6.33	CCOc1cccc(-c2ccc(C(=O)N[C@@H](CCC(=O)O)C(=O)NCc3cc(OC)c(OC)c(OC)c3)cc2)c1 [Example 16, N^2-[(3′-ethoxybiphenyl-4-yl)carbonyl]-N-(3,4,5-trimethoxybenzyl)-L-α-glutamine]
6.94	5.95	CCOc1ccccc1-c1ccc(C(=O)N[C@@H](CCC(=O)O)C(=O)NCc2cc(OC)c(OC)c(OC)c2)cc1 [Example 17A, N^2-[(2′-ethoxybiphenyl-4-yl)carbonyl]-N-(3,4,5-trimethoxybenzyl)-L-α-glutamine]
5.46	5.24	COc1cc(CNC(=O)[C@H](CCC(=O)O)NC(=O)c2ccc(-c3ccc(C(C)C)cc3)cc2)cc(OC)c1OC [Example 17AA, N^2-[(4′-isopropylbiphenyl-4-yl)carbonyl]-N-(3,4,5-trimethoxybenzyl)-L-α-glutamine]
6.69	5.99	COc1ccc(-c2ccc(C(=O)N[C@@H](CCC(=O)O)C(=O)NCc3cc(OC)c(OC)c(OC)c3)cc2)cc1 [Example 17B, N^2-[(4′-methoxybiphenyl-4-yl)carbonyl]-N-(3,4,5-trimethoxybenzyl)-L-α-glutamine]
5.44	5.54	O=C(O)CC[C@H](NC(=O)c1ccc(-c2ccc3occc3c2)cc1)C(=O)NCC12CC3CC(CC(C3)C1)C2 [Example 17BB, N-(1-adamantylmethyl)-N^2-[4-(1-benzofuran-5-yl)benzoyl]-L-α-glutamine]
> 7.52	7.10	COc1cccc(-c2ccc(C(=O)N[C@@H](CCC(=O)O)C(=O)NCc3cc(OC)c(OC)c(OC)c3)cc2)c1 [Example 17C, N^2-[(3′-methoxybiphenyl-4-yl)carbonyl]-N-(3,4,5-trimethoxybenzyl)-L-α-glutamine]
5.54	5.53	O=C(O)CC[C@H](NC(=O)c1ccc(-c2ccc3[nH]ccc3c2)cc1)C(=O)NCC12CC3CC(CC(C3)C1)C2 [Example 17CC, N-(1-adamantylmethyl)-N^2-[4-(1H-indol-5-yl)benzoyl]-L-α-glutamine]
< 4.77	< 3.70	COc1cc(CNC(=O)[C@H](CCC(=O)O)NC(=O)c2ccc(-c3cccc(C(=O)O)c3)cc2)cc(OC)c1OC [Example 17D, 4′-{[((1S)-3-carboxy-1-{[(3,4,5-trimethoxybenzyl)amino]carbonyl}propyl)amino]carbonyl}biphenyl-3-carboxylic acid]
> 7.52	5.92	CCOc1cccc(-c2ccc(C(=O)N[C@@H](CCC(=O)O)C(=O)NC(C)(C)Cc3ccc(F)cc3)cc2)c1 [Example 17DD, N^2-[(3′-ethoxybiphenyl-4-yl)carbonyl]-N-[2-(4-fluorophenyl)-1,1-dimethylethyl]-L-α-glutamine]
6.60	5.98	CCc1ccc(-c2ccc(C(=O)N[C@@H](CCC(=O)O)C(=O)NCc3cc(OC)c(OC)c(OC)c3)cc2)cc1 [Example 17E, N^2-[(4′-ethylbiphenyl-4-yl)carbonyl]-N-(3,4,5-trimethoxybenzyl)-L-α-glutamine]
> 7.52	6.71	COc1cccc(-c2ccc(C(=O)N[C@@H](CCC(=O)O)C(=O)NC(C)(C)Cc3ccc(F)cc3)cc2)c1 [Example 17EE, N-[2-(4-fluorophenyl)-1,1-dimethylethyl]-N^2-[(3′-methoxybiphenyl-4-yl)carbonyl]-L-α-glutamine]
5.77	~5.08	COc1ccc(-c2ccc(C(=O)N[C@@H](CCC(=O)O)C(=O)NCc3cc(OC)c(OC)c(OC)c3)cc2)cc1OC [Example 17F, N^2-[(3′,4′-dimethoxybiphenyl-4-yl)carbonyl]-N-(3,4,5-trimethoxybenzyl)-L-α-glutamine]
6.16	4.86	CC(C)c1cccc(-c2ccc(C(=O)N[C@@H](CCC(=O)O)C(=O)NC(C)(C)Cc3ccc(F)cc3)cc2)c1 [Example 17FF, N-[2-(4-fluorophenyl)-1,1-dimethylethyl]-N^2-[(3′-isopropylbiphenyl-4-yl)carbonyl]-L-α-glutamine]
5.80	5.10 to 5.52	COc1ccc(-c2ccc(C(=O)N[C@@H](CCC(=O)O)C(=O)NCc3cc(OC)c(OC)c(OC)c3)cc2)c(OC)c1 [Example 17G, N^2-[(2′,4′-dimethoxybiphenyl-4-yl)carbonyl]-N-(3,4,5-trimethoxybenzyl)-L-α-glutamine]
7.47	6.95	Cc1ccc(-c2ccc(C(=O)N[C@@H](CCC(=O)O)C(=O)NC(C)(C)Cc3ccc(F)cc3)cc2)cc1F [Example 17GG, N^2-[(3′-fluoro-4′-methylbiphenyl-4-yl)carbonyl]-N-[2-(4-fluorophenyl)-1,1-dimethylethyl]-L-α-glutamine]
6.00	~4.66	COc1cc(CNC(=O)[C@H](CCC(=O)O)NC(=O)c2ccc(-c3cc(OC)c(OC)c(OC)c3)cc2)cc(OC)c1OC [Example 17H, N-(3,4,5-trimethoxybenzyl)-N^2-[(3′,4′,5′-trimethoxybiphenyl-4-yl)carbonyl]-L-α-glutamine]
5.66	5.20	CC(C)Cc1ccc(-c2ccc(C(=O)N[C@@H](CCC(=O)O)C(=O)NC(C)(C)Cc3ccc(F)cc3)cc2)cc1 [Example 17HH, N-[2-(4-fluorophenyl)-1,1-dimethylethyl]-N^2-[(4′-isobutylbiphenyl-4-yl)carbonyl]-L-α-glutamine]
5.52 to 6.00	~5.00	COc1cc(CNC(=O)[C@H](CCC(=O)O)NC(=O)c2ccc(-c3ccc(-c4ccccc4)cc3)cc2)cc(OC)c1OC [Example 17II, N^2-(1,1′:4′,1″-terphenyl-4-ylcarbonyl)-N-(3,4,5-trimethoxybenzyl)-L-α-glutamine]
~5.25	~4.52	COc1ccc(-c2ccc(C(=O)N[C@@H](CCC(=O)O)C(=O)NC(C)(C)Cc3ccccc3)cc2)cc1OC [Example 17J, N^2-[(3′,4′-dimethoxybiphenyl-4-yl)carbonyl]-N-(1,1-dimethyl-2-phenylethyl)-L-α-glutamine]
5.62	4.71	O=C(O)CC[C@H](NC(=O)c1ccc(-c2cccc(CO)c2)cc1)C(=O)NCc1ccccc1 [Example 17JJ, N-benzyl-N^2-{[3′-(hydroxymethyl)biphenyl-4-yl]carbonyl}-L-α-glutamine]
5.92	~5.43	CCOc1ccccc1-c1ccc(C(=O)N[C@@H](CCC(=O)O)C(=O)NC(C)(C)Cc2ccccc2)cc1 [Example 17K, N-(1,1-dimethyl-2-phenylethyl)-N^2-[(2′-ethoxybiphenyl-4-yl)carbonyl]-L-α-glutamine]
< 4.60	< 4.17	COc1cc(CNC(=O)[C@H](CCC(=O)O)NC(=O)c2ccc(-c3c(C)cc(C)cc3C)cc2)cc(OC)c1OC [Example 17KK, N-(3,4,5-trimethoxybenzyl)-N^2-[(2′,4′,6′-trimethylbiphenyl-4-yl)carbonyl]-L-α-glutamine]
6.88	6.65	Cc1ccc(-c2ccc(C(=O)N[C@@H](CCC(=O)O)C(=O)NC(C)(C)Cc3ccccc3)cc2)cc1F [Example 17L, N-(1,1-dimethyl-2-phenylethyl)-N^2-[(3′-fluoro-4′-methylbiphenyl-4-yl)carbonyl]-L-α-glutamine]
7.06	5.92	CC(C)(Cc1ccccc1)NC(=O)[C@H](CCC(=O)O)NC(=O)c1ccc(-c2ccc(O)cc2)cc1 [Example 17LL, N-(1,1-dimethyl-2-phenylethyl)-N^2-[(4′-hydroxybiphenyl-4-yl)carbonyl]-L-α-glutamine]
~6.51	< 4.96	COc1ccc(-c2ccc(C(=O)NC(CCC(=O)O)C(=O)NCc3cc(OC)c(OC)c(OC)c3)cc2)cc1C (stereo not drawn) [Example 17M, 4-[(4′-Methoxy-3′-methyl-biphenyl-4-carbonyl)-amino]-4-(3,4,5-trimethoxy-benzylcarbamoyl)-butyric acid]
7.34	5.57	CCOc1cccc(-c2ccc(C(=O)N[C@@H](CCC(=O)O)C(=O)NC(C)(C)Cc3ccccc3)cc2)c1 [Example 17MM, N-(1,1-dimethyl-2-phenylethyl)-N^2-[(3′-ethoxybiphenyl-4-yl)carbonyl]-L-α-glutamine]
6.70	6.14	Cc1cccc(CNC(=O)[C@H](CCC(=O)O)NC(=O)c2ccc(-c3ccc4c(c3)OCO4)cc2)c1 [Example 17NN, N^2-[4-(1,3-benzodioxol-5-yl)benzoyl]-N-(3-methylbenzyl)-L-α-glutamine]
